Assay results as given in patent US8673617B2, “Culture medium for Haemophilus influenzae type B” (Sanofi Pasteur SA, priority 2007, dated 2014).

Legend:
[1] = tested on: Haemophilus influenzae serotype b; experiment: PRP production in liquid casein hydrolysate (HAC) medium with increasing hemin (sandwich ELISA on supernatant); assay type: cell-based; settings: for Mean PRP / PRP in mg/l Assay 1 / PRP in mg/l Assay 2: HAC medium, 16 h
Protocol: (§1) The production of PRP obtained after 16 hours of bacterial culture in liquid plant peptones-based culture media in which the heme source was either hemin or protoporphyrin IX of animal origin (porcine protoporphyrin) in disodium salt form, or protoporphyrin IX of purely synthetic origin in disodium salt form was compared. The hemin and protoporphyrin IX concentration ranges in the culture media varied from about 0.010 g/l to about 2 g/l so as to obtain PRP titration curves as a function of the heme source tested and as a function of the plant peptone tested. An enzymatic hydrolysate of garden pea peptone provided by Kerry (Hy pea 7404) and a wheat peptone provided by Organotechnie (19559) were tested at a concentration in the culture medium equivalent to 0.87 g/l of protein nitrogen. By reference to the current methods for the production of PRP, PRP production was also measured in a medium that contains a peptone of animal origin, such as casein hydrolysate (HAC) provided by Solabia at a concentration in the medium equivalent to 0.87 g/l with increased concentrations of hemin (see table III).
(§2) 1.1) Preparation of the Media • 1.1.1. Stock solution of β-NAD (Fluka) at 1 g/l in water which was ultrafiltered and then sterilized by filtration through 0.22 μm. • 1.1.2. Stock solution of hemin (Sigma) at 0.25 g/l in water was ultrafiltered, comprising 5 ml of 25% aqueous ammonia (Cooper) to aid dissolution. The stock solution was sterilized by filtration through 0.22 μm. • 1.1.3. Stock solution of porcine protoporphyrin IX (Sigma) at 0.25 g/l in ultrafiltered water comprising 5 ml of 25% aqueous ammonia (Cooper) in order to facilitate the dissolution. The stock solution was sterilized by filtration through 0.22 μm. • 1.1.4. Stock solution of synthetic protoporphyrin IX at 0.25 g/l in ultrafiltered water comprising 5 ml of 25% aqueous ammonia (Cooper) in order to facilitate the dissolution. The stock solution was also heated to 80° C. in a water bath with stirring in order to complete the dissolution before being sterilized by filtration through 0.22 μm. The protoporphyrin IX, in disodium salt form, was synthesized according to the method described in the U.S. provisional patent application Ser. No. 12/057,574, filed Mar. 28, 2008 and application Ser. No. 60/943,735 and filed on Jun. 13, 2007 using the steps which are described in scheme 2. • The stock solutions of hemin and protoporphyrin IX were checked for their respective contents of active compounds after sterilizing filtration. The protoporphyrin IX and hemin contents were determined by Reversed Phase High Performance Liquid Chromatography (RP-HPLC). The chromatographic chain comprises a twin head pump module allowing the formation of a binary gradient, a programmable automatic injector, a diode array UV detector and a chromatographic column of the type Synergi 4 μm, Polar RP-80A (150×4.6) mm, ref 00F-4336-E0, Phenomenex. • The stock solution of hemin (Sigma) to be checked after filtration was diluted ⅓ in distilled water. The stock solutions of porcine protoporphyrin IX (Sigma) and of synthetic protoporphyrin IX to be checked after filtration were diluted ¼ in distilled water. In parallel, a calibration series was prepared in ammoniated water ranging from 0.025 g/l to 0.125 g/l of protoporphyrin IX from porcine protoporphyrin IX from Sigma (ref: 25838-5) and a calibration series ranging from 0.050 g/l to 0.150 g/l of hemin from hemin from Sigma (ref: H5533-256). The samples to be checked and the various solutions of the calibration series were injected in a volume of 20 μl (for the hemin solutions and samples) and of 5 μl (for the protoporphyrin IX solutions and samples). The initial mobile phase consisting of a volume for volume mixture of acetonitrile and 10 mM KH2PO4 pH 2.5 is set at a flow rate of 1 ml/min. A discontinuous gradient was then produced from this mobile phase in order to separate the molecules of interest which are detected at a wavelength of 400 nm. […]

[2] = tested on: Haemophilus influenzae serotype b; experiment: PRP production in liquid wheat peptone-based culture medium as a function of heme source (sandwich ELISA on supernatant); assay type: cell-based; settings: for Mean PRP / PRP in mg/l Assay 1 / PRP in mg/l Assay 2: wheat medium, 16 h
Protocol: as §1, §2

For `C=CC1=C(C)c2cc3[n-]c(cc4nc(cc5[n-]c(cc1n2)c(C)c5CCC(=O)O)C(CCC(=O)O)=C4C)c(C)c3C=C.[Cl-].[Fe+3]` [Hemin, hemin, reference compound], the “Mean PRP” value ([1]; hemin 11.8 μg/l) was 16.8 mg/L, the “PRP in mg/l Assay 1” value ([1]; hemin 11.8 μg/l) was 18.9 mg/L and the “PRP in mg/l Assay 2” value ([1]; hemin 11.8 μg/l) was 14.7 mg/L. The “Mean PRP” value ([1]; hemin 59 μg/l) was 80.2 mg/L, the “PRP in mg/l Assay 1” value ([1]; hemin 59 μg/l) was 82.7 mg/L and the “PRP in mg/l Assay 2” value ([1]; hemin 59 μg/l) was 77.7 mg/L. For the same compound, the “Mean PRP” value ([1]; hemin 118 μg/l) was 199.5 mg/L, the “PRP in mg/l Assay 1” value ([1]; hemin 118 μg/l) was 183 mg/L and the “PRP in mg/l Assay 2” value ([1]; hemin 118 μg/l) was 216 mg/L. The “Mean PRP” value ([1]; hemin 295 μg/l) was 314.5 mg/L, the “PRP in mg/l Assay 1” value ([1]; hemin 295 μg/l) was 325 mg/L and the “PRP in mg/l Assay 2” value ([1]; hemin 295 μg/l) was 304 mg/L. For the same compound, the “Mean PRP” value ([1]; hemin 590 μg/l) was 410.5 mg/L, the “PRP in mg/l Assay 1” value ([1]; hemin 590 μg/l) was 381 mg/L and the “PRP in mg/l Assay 2” value ([1]; hemin 590 μg/l) was 440 mg/L. The “Mean PRP” value ([1]; hemin 1180 μg/l) was 414.5 mg/L, the “PRP in mg/l Assay 1” value ([1]; hemin 1180 μg/l) was 424 mg/L and the “PRP in mg/l Assay 2” value ([1]; hemin 1180 μg/l) was 405 mg/L. The “Mean PRP” value ([1]; hemin 1770 μg/l) was 461.5 mg/L, the “PRP in mg/l Assay 1” value ([1]; hemin 1770 μg/l) was 404 mg/L and the “PRP in mg/l Assay 2” value ([1]; hemin 1770 μg/l) was 519 mg/L. For the same compound, the “Mean PRP” value ([1]; hemin 2360 μg/l) was 464.5 mg/L, the “PRP in mg/l Assay 1” value ([1]; hemin 2360 μg/l) was 439 mg/L and the “PRP in mg/l Assay 2” value ([1]; hemin 2360 μg/l) was 490 mg/L. For the same compound, the “hemin concentration to obtain about 400 mg/l of PRP” value ([1]; casein hydrolysate and hemin-based medium) was “at least 500 μg/l”, the “Mean PRP” value ([2]; hemin 11.8 μg/l) was 5.3 mg/L and the “PRP in mg/l Assay 1” value ([2]; hemin 11.8 μg/l) was 4.98 mg/L. For the same compound, the “PRP in mg/l Assay 2” value ([2]; hemin 11.8 μg/l) was 5.61 mg/L, the “Mean PRP” value ([2]; hemin 59 μg/l) was 13.35 mg/L and the “PRP in mg/l Assay 1” value ([2]; hemin 59 μg/l) was 13 mg/L. The “PRP in mg/l Assay 2” value ([2]; hemin 59 μg/l) was 13.7 mg/L, the “Mean PRP” value ([2]; hemin 118 μg/l) was 17.60 mg/L and the “PRP in mg/l Assay 1” value ([2]; hemin 118 μg/l) was 17.7 mg/L. The “PRP in mg/l Assay 2” value ([2]; hemin 118 μg/l) was 17.5 mg/L, the “Mean PRP” value ([2]; hemin 295 μg/l) was 32.75 mg/L and the “PRP in mg/l Assay 1” value ([2]; hemin 295 μg/l) was 35.3 mg/L. The “PRP in mg/l Assay 2” value ([2]; hemin 295 μg/l) was 30.2 mg/L, the “Mean PRP” value ([2]; hemin 590 μg/l) was 72.4 mg/L and the “PRP in mg/l Assay 1” value ([2]; hemin 590 μg/l) was 71.4 mg/L. The “PRP in mg/l Assay 2” value ([2]; hemin 590 μg/l) was 73.4 mg/L, the “Mean PRP” value ([2]; hemin 1180 μg/l) was 291.5 mg/L and the “PRP in mg/l Assay 1” value ([2]; hemin 1180 μg/l) was 327 mg/L. For the same compound, the “PRP in mg/l Assay 2” value ([2]; hemin 1180 μg/l) was 256 mg/L, the “Mean PRP” value ([2]; hemin 1770 μg/l) was 466.5 mg/L and the “PRP in mg/l Assay 1” value ([2]; hemin 1770 μg/l) was 487 mg/L. The “PRP in mg/l Assay 2” value ([2]; hemin 1770 μg/l) was 446 mg/L, the “Mean PRP” value ([2]; hemin 2360 μg/l) was 495.5 mg/L and the “PRP in mg/l Assay 1” value ([2]; hemin 2360 μg/l) was 487 mg/L. For the same compound, the “PRP in mg/l Assay 2” value ([2]; hemin 2360 μg/l) was 504 mg/L and the “heme source concentration required for optimum / equivalent PRP production” value ([2]; wheat peptone medium (FIG. 2)) was “about 1500 μg/l”.
